These are literature values, as cited in patent publication US8614057B2, “Methods for collecting and detecting oligonucleotides” (The Invention Science Fund I, LLC, priority 2008, dated 2013).

The conditions of series [1]: subcutaneous; 40, 8, and 1.6 μg injections once daily over 35 days.
Series [2] concerns the target T1, RNAse A (Bos taurus, UniProt P61823).
T1 sequence (P61823 27-150): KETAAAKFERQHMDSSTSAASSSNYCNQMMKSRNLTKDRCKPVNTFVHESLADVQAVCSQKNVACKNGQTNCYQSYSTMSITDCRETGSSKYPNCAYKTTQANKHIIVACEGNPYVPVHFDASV

Series [3] deals with RNase-2 (eosinophil derived neurotoxin) (Homo sapiens, UniProt P10153).
RNase-2 (eosinophil derived neurotoxin), sequence (P10153 28-161): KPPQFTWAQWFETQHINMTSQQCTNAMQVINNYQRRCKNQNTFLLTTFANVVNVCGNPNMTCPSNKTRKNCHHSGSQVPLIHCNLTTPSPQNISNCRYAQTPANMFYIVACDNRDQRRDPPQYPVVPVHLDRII
The next series has as its target T2, RNase-4 (Homo sapiens, UniProt P34096).
T2 sequence (P34096 29-147): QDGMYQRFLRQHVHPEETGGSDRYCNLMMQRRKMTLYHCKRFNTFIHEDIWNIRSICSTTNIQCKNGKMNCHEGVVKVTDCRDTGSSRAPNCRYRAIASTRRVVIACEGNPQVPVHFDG

For series [4] the following is noted: in humans.
Series [5] deals with T1, RNAse A. Particulars: RNAse A catalysis.

Where two headings read alike, the source gives them in different places.

Take `Nc1ccc(N=Nc2ccc(-c3ccc(O)cc3)cc2)c2ccc(S(=O)(=O)O)cc12` [8-amino-5-(4′-hydroxylbiphenyl-4-ylazo)naphthalene-2-sulfonate]: the “toxicity to the animals” value in series [1] is “without overt toxicity”.

For the molecule `Nc1ncnc2c1ncn2C1OC(COP(=O)(O)OP(=O)(O)OC2CC(n3ccc(=O)[nH]c3=O)OC2COP(=O)(O)O)C(OP(=O)(O)O)C1O` (centres unmarked) [pdUppAp, 5′-phosphor-2′-deoxyuridine 3′-pyrophosphate, P′-P5-ester with adenosine 3′-phosphate], the Ki is 27 nM on RNAse A [2] (pH 5.9) and 240 nM at RNAse A [2] (pH 7.0). For the same molecule, the “inhibition of RNase-2 activity” value in series [3] is “inhibits the activity”. At RNase-4, the “inhibition of RNase-4 activity” value was “inhibits the activity”.

Turning to Etanercept, the half-life in series [4] is 70 h.

With oligo(vinylsulfonic acid), the Ki was approximately 0.01 nM at RNAse A [5] (0 mM sodium chloride end of the range 0 to 100 mM, read-out: inhibition constant (Ki), lower end of reported range) and approximately 120 nM at RNAse A [5] (100 mM sodium chloride end of the range 0 to 100 mM, read-out: inhibition constant (Ki), upper end of reported range).

What is called Ki is the equilibrium dissociation constant of an inhibitor or competing ligand from its target. One may read the half-life as the time in which the quantity being followed falls by half.
